The subject of one test is MMTV-PyMT mice. Description: Spontaneous metastatic breast cancer, FEC ±MitoQ. The class given is in vivo, mouse. Particulars: 6 weeks. From the text:
Female FVB/N-Tg(MMTV-PyMT)634Mul/J (MMTV-PyMT) mice that express the polyomavirus middle T antigen spontaneously develop orthotropic multifocal breast adenocarcinomas that spontaneously disseminate metastases to the lungs during mouse lifetime. For spontaneous metastasis assays, female MMTV-PyMT mice (The Jackson Laboratory) were daily observed for signs of spontaneous primary tumors starting at 6 weeks of age. Once tumors became palpable, 4 additional weeks were waited to mimic a clinical time frame between first tumor signs and treatment initiation. Ten weeks-old mice with primary tumors of ˜0.8 cm in diameter received a single dose of FEC chemotherapy (100 mg/Kg 5-FU, 5 mg/Kg epirubicin, 100 mg/Kg cyclophosphamide), a clinically relevant neoadjuvant or adjuvant chemotherapeutic combination. Animals were then randomly assigned to a group receiving daily 18 mg/Kg MitoQ or an equal volume of vehicle by oral gavage. They were sacrificed at 16 weeks-old, and the lungs insufflated with Indian ink for metastasis quantification as described above. Primary tumors were collected, weighted, and processed for RT-qPCR.

In test [1] the test system is MDA-MB-231 and SkBr3 cells. As to the kind of experiment: RNA sequencing, transcripts common to both cell lines. The class given is cell-based, human. Particulars: MitoQ 500 nM, 48 h. The procedure: MDA-MB-231 and SkBr3 cancer cells were treated ±MitoQ for 48 h. Total mRNA was then extracted using the NucleoSpin RNA kit (Macherey-Nagel®), including DNAse treatment in the intermediary steps. mRNAs were quantified using the Qubit BR dsRNA assay kit (Thermo Fisher Scientific®), and mRNA integrity was evaluated on the Agilent 2100 Bioanalyzer using the RNA 6000 nano kit (Agilent®). All samples had RNA integrity number values ≥7.5. Libraries from control and treated samples were prepared starting from 150 ng of total mRNA using the KAPA RNA HyperPrep Kit with RiboErase (HMR) kit (KAPA Biosystems®) following the manufacturer's recommendations (KR1351—v1.16). Libraries were equimolarly pooled and sequenced on a single lane of an Illumina® NovaSeq 6000 platform. All libraries were sequenced at a depth of >50 million paired-end reads (2×100 bp reads) per sample. All sequencing data were analyzed using the Automated Reproducible MOdular workflow for preprocessing and differential analysis of RNAseq data (ARMOR) pipeline. In this pipeline, reads underwent a quality check using FastQC. Quantification and quality control results were summarized in a MultiQC report before being mapped using Salmon to the transcriptome index that was built using all Ensembl cDNA sequences obtained in the Homo_sapiens.GRCh38.cdna.all.fa file. Then, estimated transcript abundances from Salmon were imported into R using the tximeta package, and analyzed for differential gene expression with edgeR. To get a robust signature, only genes with |log 2 Fold Change|>1 and P<0.01 were retained.
While EMT and sternness markers are usual suspects when testing antimetastatic strategies, it was decided to go deeper in the understanding of the molecular effects of MitoQ, and performed unbiased RNA sequencing (RNAseq) using cells treated for 48 h±MitoQ (500 nM). […] On independent samples upon the same conditions (including |log 2 Fold Change|>1 and P<0.01), RT-qPCR on the two cell lines validated all genes as potential biomarkers of human breast cancer cell response to MitoQ, to the exception of EID1, PEG10, FTH1 and NUPR1 (FIG. 12A-M and Table 7).

Test [2] has as its system primary breast tumors of MMTV-PyMT mice. Description: RT-qPCR of primary breast tumors. The class given is in vivo. The settings on record: FEC + MitoQ 18 mg/kg daily oral; mouse transcripts; P<0.01; read-out: fold induction of SLC7A11, SERPINE1 and TXNRD1 (each independently). The procedure:
(§1) Total mRNA from MDA-MB-231, SkBr3 and MDA-MB-436 cells treated ±MitoQ for 48 h was extracted using the NucleoSpin RNA Kit (Macherey-Nagel®). Total mRNA from primary tumors was extracted with Tri reagent (Molecular Research Center®, Cat #TR118). mRNAs were quantified by the Qubit BR dsRNA assay kit (Thermo Fisher Scientific®), and mRNA integrity was evaluated on an Agilent® 2100 Bioanalyzer with the RNA 6000 nano kit (Agilent®). It was reverse transcribed in complementary DNA using the High-Capacity cDNA Reverse Transcription Kit (Applied Biosystems®, cat #4368814) according to manufacturer's protocol. Complementary DNA (500 ng) was amplified by real time quantitative PCR (RT-qPCR) using the low ROX SYBR Master Mix dTTP Blue (Eurogentec®) and primers listed in Table 5 and Table 6 on a ViiA 7 Real-Time PCR System (Thermo Fisher Scientific®). Gene expression was normalized to β-actin gene expression.
Female FVB/N-Tg(MMTV-PyMT)634Mul/J (MMTV-PyMT) mice that express the polyomavirus middle T antigen spontaneously develop orthotropic multifocal breast adenocarcinomas that spontaneously disseminate metastases to the lungs during mouse lifetime. […] They were sacrificed at 16 weeks-old, and the lungs insufflated with Indian ink for metastasis quantification as described above. […]
Background: In qPCR the cycle at which signal appears reflects the starting amount.

Test [3] deals with MDA-MB-231 cells. As to the kind of experiment: RT-qPCR of EMT markers. Particulars: MitoQ 500 nM, 48 h. The class given is cell-based, human. The procedure:
as §1

Another test has as its system SkBr3 cells. Description: RT-qPCR of EMT markers. The class given is cell-based, human. Particulars: MitoQ 500 nM, 48 h. The procedure:
as §1

The next test concerns MDA-MB-436 cells. As to the kind of experiment: RT-qPCR of EMT markers. The settings on record: MitoQ 100 nM, 48 h. The test is classed as cell-based, human. Here is the method:
as §1

Test [4] concerns MDA-MB-231 cells. Description: Cell cycle, flow cytometry with propidium iodide. The settings on record: MitoQ 100 nM, 48 h. The class given is cell-based, human. The procedure:
Cells were seeded in 6-well plates at a density of 500,000 cells/well and allowed to adhere overnight. Cells were then starved in 0.1% FBS medium for 24 h and treated for 48 h±MitoQ. Afterwards, they were detached with trypsin-EDTA (0.05%) (Gibco®, cat #25300054) and centrifuged at 1,200 rpm for 5 min. Culture medium was discarded, and the pellets washed. Cells were fixed by adding 700 μL of ice-cold ethanol 100% in 300 μL of cell suspension in PBS. Cells were then washed twice with 1 mL of Tris buffer with 0.2% (v/v) Triton X-100, and finally resuspended in 300 μL of PBS with RNase (0.2 mg/mL) and propidium iodide (5 μg/mL). At least 10^4 events were acquired using a FACSCalibur™ flow cytometer (Becton Dickinson®), and the FlowJo cell cycle analysis tool was used to analyze data according to DNA content.
In general terms: In flow cytometry, cells or beads pass a laser one at a time.

[5] abbreviates: |log 2 fold change|>1 and P<0.01.

Consider one compound from patent publication US20250270648A1, “MOLECULAR SIGNATURE FOR ASSESSING THE RESPONSIVENESS OF CANCER TO MITOCHONDRIA-TARGETED ANTIOXIDANTS” (UNIVERSITÉ CATHOLIQUE DE LOUVAIN, priority 2021, published 2025).

Molecules are shown by their SMILES.

In the case of `COC1=C(OC)C(=O)C(CCCCCCCCCC[P+](c2ccccc2)(c2ccccc2)c2ccccc2)=C(C)C1=O` [MitoQ], the “number of surface lung metastases” value with MMTV-PyMT mice (FEC + MitoQ 18 mg/kg daily oral vs FEC + vehicle) is given as “significantly repressed”. Besides, in the test on MMTV-PyMT mice (FEC + MitoQ 18 mg/kg daily oral vs FEC + vehicle, P=0.1395), the “total primary tumor weight” value is listed as “not altered”. Also, the mice metastasis-free in the test with MMTV-PyMT mice (FEC + MitoQ 18 mg/kg daily oral, all 15 FEC+ control mice had metastases) is 4 of 21. Further, in test [1] (RNAseq, both cell lines), the “EID1 and PEG10 gene transcripts” value is on record as “downregulated”; the “PHGDH-1, SLC7A11, SERPINE1, FTH1, TXNRD1, PSAT1, PCK2, G6PD, ASNS, SLC6A9 and NUPR1 gene transcripts” value is given as “upregulated”. Also, in test [1] (setting [5]), the “number of commonly induced transcripts” value was determined as 11 and the “number of commonly repressed transcripts” value was 2. In addition, in test [2], the fold induction at 18 mg/kg is at least 2. Moreover, in the test on MDA-MB-231 cells [3], the SLUG/SNAI2 transcription result is “not significantly altered”; the “mRNA expression of EMT markers vimentin (VIM), SNAIL (SNAI1), ZEB1 and TWIST1” value was “decreased”. For the same compound, the “mRNA expression of all analyzed EMT inducers” value in the test with SkBr3 cells is recorded as “repressed”. Also, the “mRNA expression of EMT markers VIM (vimentin), SNAI1, SNAI2 and TWIST1” value in the test with MDA-MB-436 cells is given as “downregulated”. In addition, the cell cycle result in the test with MDA-MB-231 cells [4] was “not altered”.
